The subject of one series is Bel7402/5-FU xenografts. In words: In vivo tumor growth inhibition, Bel7402/5-FU xenograft. Also on record: species or system BALB/c nude mice. The note with it: 70 μmol/kg, intraperitoneal daily, 21 days, n = 6; saline group 1.47 ± 0.21 g. As for the experimental part:
All animal experimental protocols were approved by the Animal Research and Care Committee of Nantong University. Female BALB/c nude mice at 5∼6 week-old were subcutaneously implanted with 1×10^6 Bel7402/5-FU cells. […] The body mass and tumor size of nude mice were surveyed every three days during the 21 days study. Tumor size (mm^3) of nude mice was determined using the formula: tumor size = ½ (Length×Width^2). Finally, these tumor-bearing mice were sacrificed, and their tumors were removed and weighed at the end of the 21 days.
Data (means ± SD) were from tumor volumes or weight of each group of mice (n = 6 per group). *p < 0.01 vs. control group.

The test system of the next series is Bel7402/5-FU cells. In words: Cell apoptosis analysis by flow cytometry. The conditions noted are these: 5.0 μM, 72 h. The series is classed as cell-based, human. As for the experimental part: Briefly, Bel7402/5-FU cells were cultured in DMEM at 37°C with 5% CO2 for 12 h. […] Then Bel7402/5-FU cells were collected and using APC-Annexin V and 7-AAD to stain these cells under the condition of 37°C for 15 min. Flow cytometry analysis (Calibur, BD, United States) decide the percentage of apoptotic cells according to APC signal (FL4) (excitation wavelength at 633 nm; emission wavelength at 660 nm) and 7-AAD staining signal (FL3) (excitation wavelength at 488 nm; emission wavelength at 647 nm). WinList 3D (7.1) analyzed the data and Excel 2016 plotted the histogram.
FIGURE 5 CHC causes apoptosis of Bel7402/5-FU cells. […] The data (mean ± SD, percentage of apoptotic cells) represent the average of three separate experiments. *p < 0.01 vs. control.

The test system of another series is CT-DNA. In words: UV-visible spectroscopy titrations with CT DNA. Format: binding, calf. The note with it: 20 μM compound, equal increments of CT-DNA, 25°C. How it is done: The ultraviolet spectrophotometer (UV2500, Shimadzu, Tokyo, Japan) recorded UV–visible spectroscopy under titrations at 25°C. Tris buffer (5 mM) was used to prepare Stock solutions of CT DNA (20 μM, calf thymus DNA) comprising ideal structure of double stranded DNA. Dissolving synthesized derivative in 1:1000 DMSO/Milli Q water to prepare stock solutions of them (20 μM). UV–visible absorption titrations were carried out with addition of 100 μl CT DNA solution to 4 ml solution of tested compound in quartz cuvette each time interval. Until the absorption band of complex containing synthesized derivative and CT DNA kept at a stable wavelength after adding CT DNA successfully for five times, titrations were finished. Finally, spectrophotometer noted the absorption spectra (250–500 nm).
FIGURE 7 UV-visible absorption spectra of CHC after adding equal amounts of CT DNA. Arrows indicate changes in absorbance with increasing concentrations of DNA [CHC] = 20 μM.

A further series relates to Huh7. In words: MTT antiproliferative assay, Huh7. Format: cell-based. The note with it: Homo sapiens, Huh-7, 72 h, mean ± SD of three experiments, read-out: In vitro antiproliferative activity (IC50) Huh7. How it is done: (§1) Briefly, appropriate cells (1 × 10^4 cells/mL) were placed into 96-well plates in 100 μL of DMEM medium overnight. Then adding 100 μL of evaluated compounds into individual well for 72 h while 0.1% DMSO aqueous solution was treated as the negative control. After incubation with 30 μl MTT (5 mg/mL) for 4 h in all well, and ELISA plate reader measured absorbance of each well at 570 nm. Then calculating cytotoxicity effect of evaluated compounds through the formula: Cell inhibitory percentage (%) = (1−OD of treatment group/OD of control) × 100%.
Background: Tetrazolium assays rely on reduction of a dye to a coloured formazan, in cell work by metabolically active cells.

Another series relates to SMMC-7721. In words: MTT antiproliferative assay, SMMC-7721. The series is classed as cell-based. The conditions noted are these: Homo sapiens, 72 h, mean ± SD of three experiments, read-out: In vitro antiproliferative activity (IC50) SMMC-7721. How it is done:
as §1

A further series deals with HCT116. Put plainly: MTT antiproliferative assay, HCT116. Format: cell-based. The conditions noted are these: Homo sapiens, HCT-116, 72 h, mean ± SD of three experiments, read-out: In vitro antiproliferative activity (IC50) HCT116. How it is done:
as §1

In the case of `O=C(CCCCCCC(=O)Nc1ccccc1)NO` [SAHA, Vorinostat, reference compound], the “tumor mass at end of treatment” value in the series with Bel7402/5-FU xenografts stood at 0.76 ± 0.11 g. Further, the “rate of Annexin V+ Bel7402/5-FU cellular apoptosis” value in the series on Bel7402/5-FU cells amounted to 30.8%. The “change of UV-visible absorption upon adding CT-DNA” value in the series with CT-DNA is “slightly increased”.
Broadly, the IC50 is the midpoint of a concentration-inhibition curve. For `COc1ccc2c(c1)[nH]c1c(C)nccc12` [Harmine, harmine, reference compound], the IC50 with Huh7 turned out to be 41.9 ± 5.06 µM; in the series on SMMC-7721 it was 47.6 ± 5.12 µM; in the series with HCT116, 43.8 ± 3.85 µM.

Source of the values: publication PMC7848139, “Novel Hybrid CHC from β-carboline and N-Hydroxyacrylamide Overcomes Drug-Resistant Hepatocellular Carcinoma by Promoting Apoptosis, DNA Damage, and Cell Cycle Arrest” (Frontiers in Pharmacology, 2021).
